Source: PMC9578396, “Intrinsic Antibacterial Activity of Xeruborbactam In Vitro: Assessing Spectrum and Mode of Action” (Antimicrobial Agents and Chemotherapy, 2022)
Where “and” joins values, the source holds several entries; their conditions need not be identical. Equal values may be shown once. Read-outs that look alike come from different tables or passages of the source.

Experiments:
[1] = tested on: Acinetobacter baumannii; assay: Broth microdilution MIC (CLSI), Acinetobacter baumannii; assay type: cell-based
In short: (§1)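 Test organisms were KPC-producing clinical isolates (some enriched for porin mutations), matched isolates that lost KPC plasmids, and engineered porin/efflux mutant strains. Susceptibility was measured by broth microdilution following CLSI methods, using panels prepared in-house.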

[2] = tested on: Pseudomonas aeruginosa; assay: Broth microdilution MIC (CLSI), Pseudomonas aeruginosa; assay type: cell-based; details: for MIC50 / MIC90: 506 isolates
In short: as §1

[3] = tested on: Streptococcus pneumoniae; assay: MIC, Streptococcus pneumoniae; assay type: cell-based
Text: Bacterial isolates were subjected to broth microdilution susceptibility testing, performed according to Clinical and Laboratory Standards Institute (CLSI) methods ([46]), using panels prepared in-house. Meropenem was purchased from Sandoz, and all other antibiotics were from Sigma-Aldrich. Xeruborbactam was synthesized at Qpex Biopharma, San Diego, CA. Avibactam was purchased from eNovation Chemicals LLC, Bridgewater, NJ, USA; zidebactam was from MedKoo Biosciences, Inc., Morrisville, NC, and nacubactam was from Advanced ChemBlocks, Hayward, CA. Durlobactam was synthesized at Acme Bioscience, Palo Alto, CA, USA.

[4] = target: PBP1b (Pseudomonas aeruginosa, UniProt G3XD31); assay: Gel-based Bocillin FL competition PBP binding assay
Sequence of PBP1b (G3XD31 entry or part of it): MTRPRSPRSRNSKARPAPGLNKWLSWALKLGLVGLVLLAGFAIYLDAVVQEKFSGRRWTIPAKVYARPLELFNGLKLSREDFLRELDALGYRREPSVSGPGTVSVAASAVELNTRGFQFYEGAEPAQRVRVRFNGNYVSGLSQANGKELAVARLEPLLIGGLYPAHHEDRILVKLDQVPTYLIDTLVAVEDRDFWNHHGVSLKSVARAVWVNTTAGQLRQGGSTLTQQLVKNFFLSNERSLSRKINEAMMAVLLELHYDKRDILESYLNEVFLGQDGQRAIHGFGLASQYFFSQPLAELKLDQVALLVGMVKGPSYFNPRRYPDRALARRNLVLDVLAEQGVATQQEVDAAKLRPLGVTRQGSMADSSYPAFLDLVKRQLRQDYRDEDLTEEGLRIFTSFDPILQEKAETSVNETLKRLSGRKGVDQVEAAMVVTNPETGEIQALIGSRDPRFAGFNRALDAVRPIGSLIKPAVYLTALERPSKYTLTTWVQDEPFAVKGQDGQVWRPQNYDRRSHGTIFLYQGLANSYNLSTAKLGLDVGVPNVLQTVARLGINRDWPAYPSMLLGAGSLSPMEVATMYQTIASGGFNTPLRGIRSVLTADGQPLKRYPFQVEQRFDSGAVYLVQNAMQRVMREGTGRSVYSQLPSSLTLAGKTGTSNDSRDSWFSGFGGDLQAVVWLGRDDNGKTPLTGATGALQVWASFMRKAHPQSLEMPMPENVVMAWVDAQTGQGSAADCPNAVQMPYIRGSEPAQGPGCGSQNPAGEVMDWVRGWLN
Description: Ten milliliters of overnight bacterial culture was inoculated in 1 L of LB medium and grown to an OD600 of 0.7 to 0.9. The cell pellet was washed once with 50 mL of solution containing 100 mM Na-phosphate at pH 7.0 and 100 mM NaCl and resuspended in 10 mL of the same buffer with one tablet of EDTA-free mini-protease inhibitor and 10 mg of lysozyme. Cell suspensions were incubated for 45 min at 37°C, and then 200 μL of DNase I was added along with MgSO4 (to a final concentration of 10 mM), followed by three cycles of freeze-thawing (10 min and 20 min, respectively). Four cycles of sonication at maximum power were performed next, each cycle lasting for 30 s with 1 min on ice between cycles. The cell suspension was centrifuged at 12,000 × g for 10 min at 4°C. The supernatant was collected and centrifuged at 100,000 × g for 45 min at 4°C. The pellet was washed three times with 10 mL of 100 mM Na-phosphate, pH 7.0, by resuspension and subsequent centrifugation at 100,000 × g for 10 min at 4°C. The pellet was finally resuspended in 1.5 mL of 100 mM Na-phosphate, pH 7.0, and passed several times through a Dounce homogenizer (tight pestle). Membrane preparations were aliquoted and kept at −80°C.
Five microliters of total bacterial membrane preparation was mixed with 5 μL of a test compound at a desired concentration in 100 mM Na-phosphate buffer, pH 7.0. Incubation of bacterial membrane preparations with control beta-lactams was performed for 10 min at 30°C; xeruborbactam was incubated with membrane preparations for 1 h at 30°C. Five microliters of 150 μM Bocillin FL fluorescent probe (Thermo Fisher Scientific) was added, and the reaction mixture was incubated for an additional 10 min at 30°C in the case of beta-lactams or for 20 min on ice (0°C) in the case of xeruborbactam. […] At the end of the incubation step, 15 μL of 2× SDS sample loading buffer was added, and the reaction mixture was incubated for 5 min at 95°C. Twenty-five microliters of the reaction mixture was then loaded on an 8% SDS Tris-glycine gel (Thermo Fisher Scientific). At the end of the run, the gel was briefly rinsed with water and fixed in 10% acetic acid, 40% methanol for 20 min. After an additional wash in water for 30 min, the gel was scanned on a Typhoon Trio+ Imager using a blue laser filter (excitation, 488 nm, and emission, 520 nm). Densitometry of the gel images was performed using ImageQuant software (Molecular Dynamics). IC50 values were calculated with Prism software (GraphPad).

[5] = Acinetobacter baumannii, strain ACM1013, ΔadeIJK
[6] = Acinetobacter baumannii, strain ACM1014, ΔadeABC
[7] = Acinetobacter baumannii, strain ACM1015, ΔadeIJK ΔadeABC
[8] = Acinetobacter baumannii, strain ACM1027, adeN (AdeIJK overexpression)
[9] = Acinetobacter baumannii, strain ACM1030, adeS (AdeABC overexpression)
[10] = Pseudomonas aeruginosa, strain PAM1032, nalB (MexAB-OprM overexpression)
[11] = Pseudomonas aeruginosa, strain PAM1033, nfxB (MexCD-OprJ overexpression)
[12] = Pseudomonas aeruginosa, strain PAM1034, nfxC (MexEF-OprN overexpression)
[13] = Pseudomonas aeruginosa, strain PAM1106, mexA::Tet
[14] = Pseudomonas aeruginosa, strain PAM1154, oprM::Hg
[15] = Streptococcus pneumoniae, sp001, read-out: MIC
[16] = Streptococcus pneumoniae, sp002, read-out: MIC
[17] = Streptococcus pneumoniae, sp003, read-out: MIC
[18] = Streptococcus pneumoniae, sp004, read-out: MIC
[19] = Streptococcus pneumoniae, sp005, read-out: MIC
[20] = Streptococcus pneumoniae, sp006, read-out: MIC
[21] = Streptococcus pneumoniae, sp009, read-out: MIC
[22] = Streptococcus pneumoniae, sp117, read-out: MIC
[23] = Streptococcus pneumoniae, sp118, read-out: MIC
[24] = Streptococcus pneumoniae, sp119, read-out: MIC
[25] = Streptococcus pneumoniae, sp120, read-out: MIC
[26] = Streptococcus pneumoniae, sp122, read-out: MIC
[27] = Streptococcus pneumoniae, sp123, read-out: MIC
[28] = Streptococcus pneumoniae, sp125, read-out: MIC
[29] = Streptococcus pneumoniae, sp126, read-out: MIC
[30] = Carbapenem-resistant Acinetobacter baumannii, 505 isolates
[31] = Streptococcus pneumoniae, S. pneumoniae strains, n = 18

C[C@@H](O)[C@H]1C(=O)N2C(C(=O)O)=C(S[C@@H]3CN[C@H](C(=O)N(C)C)C3)[C@H](C)[C@H]12 [Meropenem]
0.25 µg/mL and 0.66 µM: MIC ([1]; Acinetobacter baumannii, ATCC17978)
1 µg/mL: MIC [1, 8] | MIC [2, 10]
0.06 µg/mL: MIC [1, 7] | MIC [2, 13] | MIC [2, 14] | MIC [3, 19]
230 nM: IC50 ([4]; read-out: Relative binding IC50, PBP1b; P. aeruginosa PAM3034 membranes; Bocillin FL step 0°C for xeruborbactam, 30°C for beta-lactams)
0.06 µg/mL and 0.16 µM: MIC ([2]; Pseudomonas aeruginosa, PAO1)
4 µg/mL: MIC [3, 26]
≤ 0.03 µg/mL: MIC [3, 15] | MIC [3, 16] | MIC [3, 17]
0.5 µg/mL: MIC [1, 9] | MIC ([2]; PAM1154 (oprM::Hg), xeruborbactam 0 µg/ml) | MIC [2, 12]
0.125 µg/mL: MIC [1, 5] | MIC [1, 6] | MIC ([3]; Streptococcus pneumoniae) | MIC ([3]; sp008) | MIC ([3]; sp121)
0.25 µg/mL: MIC ([2]; Pseudomonas aeruginosa) | MIC [2, 11] | MIC [3, 18] | MIC [3, 20] | MIC [3, 21] | MIC [3, 22] | MIC [3, 23] | MIC [3, 24] | MIC [3, 25] | MIC [3, 27] | MIC [3, 28] | MIC [3, 29]

O=C(O)c1c(F)ccc2c1OB(O)[C@@H]1C[C@H]21 [Xeruborbactam]
64 µg/mL: MIC90 [1, 30]
4 µg/mL: MIC [1, 5] | MIC [1, 7] | MIC [3, 16] | MIC [3, 17]
16 fold: fold reduction of MIC ([2]; inactivation of MexAB-OprM)
2 fold: fold MIC increase ([1]; adeIJK overexpression) | fold MIC decrease ([2]; mexCD-oprJ-overexpressing strain PAM1033)
> 32 µg/mL: MIC [3, 18] | MIC [3, 22] | MIC [3, 23] | MIC [3, 26] | MIC [3, 27] | MIC [3, 29] | MIC90 [3, 31]
> 256 µg/mL: MIC [2, 10]
> 64 µg/mL: MIC50 ([2]; Pseudomonas aeruginosa, read-out: MIC50) | MIC90 ([2]; Pseudomonas aeruginosa, read-out: MIC90)
8 µg/mL: MIC ([2]; Pseudomonas aeruginosa, strain 1097436, alone, read-out: MIC) | MIC ([2]; Pseudomonas aeruginosa, strain 1104284, alone, read-out: MIC) | MIC ([2]; Pseudomonas aeruginosa, strain 1113238, alone, read-out: MIC) | MIC ([2]; Pseudomonas aeruginosa, strain 1113634, alone, read-out: MIC) | MIC ([2]; Pseudomonas aeruginosa, strain 1114012, alone, read-out: MIC) | MIC ([2]; Pseudomonas aeruginosa, strain 1116835, alone, read-out: MIC) | MIC ([2]; Pseudomonas aeruginosa, strain 1119418, alone, read-out: MIC) | MIC ([2]; Pseudomonas aeruginosa, strain 1126521, alone, read-out: MIC) | MIC ([2]; Pseudomonas aeruginosa, strain 1126957, alone, read-out: MIC) | MIC ([2]; Pseudomonas aeruginosa, strain 1131123, alone, read-out: MIC) | MIC [3, 15]
94%: isolates with MICs of ≥64 μg/mL ([2]; 506 P. aeruginosa clinical isolates)
4 fold: fold MIC decrease ([1]; adeIJK inactivation)
1900 ± 200 nM: IC50 ([4]; P. aeruginosa PAM3034 membranes; Bocillin FL step 0°C for xeruborbactam, 30°C for beta-lactams; read-out: Relative binding IC50, PBP1b)
>64 µg/mL: MIC50 ([2]; Pseudomonas aeruginosa) | MIC90 ([2]; Pseudomonas aeruginosa)
18 µM and 4 µg/mL: MIC ([1]; Acinetobacter baumannii, pumpless strain of A. baumannii, read-out: MIC)
72 µM: MIC ([1]; Acinetobacter baumannii ACM1320 (ATCC 17978), read-out: MIC)
16 µg/mL: MIC ([1]; Acinetobacter baumannii ACM1320 (ATCC 17978)) | MIC ([1]; Acinetobacter baumannii, AB1007 (no beta-lactamase), xeruborbactam 0 µg/ml, read-out: MIC) | MIC ([1]; Acinetobacter baumannii, ATCC17978, strain ATCC 17978 (Fig. 6), read-out: MIC) | MIC ([1]; Acinetobacter baumannii, strain AB1007, wild type, read-out: MIC) | MIC [1, 6] | MIC [1, 9] | MIC ([1]; Acinetobacter baumannii, strain AB1007, read-out: MIC) | MIC50 [1, 30] | MIC ([2]; Pseudomonas aeruginosa, PAM1154 (oprM::Hg), xeruborbactam 0 µg/ml) | MIC ([2]; Pseudomonas aeruginosa, after inactivation of MexAB-OprM, read-out: MIC) | MIC ([2]; Pseudomonas aeruginosa, strain 1089003, alone, read-out: MIC) | MIC ([2]; Pseudomonas aeruginosa, strain 1098084, alone, read-out: MIC) | MIC ([2]; Pseudomonas aeruginosa, strain 1104100, alone, read-out: MIC) | MIC ([2]; Pseudomonas aeruginosa, strain 1106973, alone, read-out: MIC) | MIC ([2]; Pseudomonas aeruginosa, strain 1108885, alone, read-out: MIC) | MIC ([2]; Pseudomonas aeruginosa, strain 1109744, alone, read-out: MIC) | MIC ([2]; Pseudomonas aeruginosa, strain 1116849, alone, read-out: MIC) | MIC ([2]; Pseudomonas aeruginosa, strain 1118234, alone, read-out: MIC) | MIC ([2]; Pseudomonas aeruginosa, strain 1124145, alone, read-out: MIC) | MIC ([2]; Pseudomonas aeruginosa, strain 1128674, alone, read-out: MIC) | MIC ([2]; Pseudomonas aeruginosa, strain 1130387, alone, read-out: MIC) | MIC ([2]; Pseudomonas aeruginosa, strain 1130447, alone, read-out: MIC) | MIC ([2]; Pseudomonas aeruginosa, strain 1130475, alone, read-out: MIC) | MIC [2, 13] | MIC [2, 14] | MIC ([2]; Pseudomonas aeruginosa, strain PAM1154, read-out: MIC) | MIC [3, 19] | MIC ([3]; Streptococcus pneumoniae, sp007, read-out: MIC)
256 µg/mL: MIC ([2]; Pseudomonas aeruginosa, before inactivation of MexAB-OprM (wild type), read-out: MIC) | MIC ([2]; Pseudomonas aeruginosa, strain PAM1020, wild type, read-out: MIC) | MIC [2, 12]
72 µM and 16 µg/mL: MIC ([1]; Acinetobacter baumannii, ATCC17978, Acinetobacter baumannii ACM1320 (ATCC 17978), read-out: MIC)
32 µg/mL: MIC ([1]; Acinetobacter baumannii, 505 isolates of carbapenem-resistant A. baumannii, read-out: modal MIC) | MIC [1, 8] | MIC ([2]; Pseudomonas aeruginosa, strain 1098916, alone, read-out: MIC) | MIC ([2]; Pseudomonas aeruginosa, strain 1100407, alone, read-out: MIC) | MIC ([2]; Pseudomonas aeruginosa, strain 1104168, alone, read-out: MIC) | MIC ([2]; Pseudomonas aeruginosa, strain 1125954, alone, read-out: MIC) | MIC ([2]; Pseudomonas aeruginosa, strain 1125996, alone, read-out: MIC) | MIC ([2]; Pseudomonas aeruginosa, strain 1126982, alone, read-out: MIC) | MIC ([2]; Pseudomonas aeruginosa, strain 1128636, alone, read-out: MIC) | MIC ([2]; Pseudomonas aeruginosa, strain PAM1154 (Fig. 6), read-out: MIC) | MIC [3, 20] | MIC ([3]; Streptococcus pneumoniae, sp008, read-out: MIC) | MIC [3, 21] | MIC [3, 24] | MIC [3, 25] | MIC ([3]; Streptococcus pneumoniae, sp121, read-out: MIC) | MIC [3, 28] | MIC50 [3, 31]
128 µg/mL: MIC [2, 11]
7100 ± 800 nM: IC50 ([4]; P. aeruginosa PAM3034 membranes; Bocillin FL step 0°C for xeruborbactam, 30°C for beta-lactams; listed as xeruborbactam; read-out: Relative binding IC50, PBP1b)
16 µg/mL and 72 µM: MIC ([2]; Pseudomonas aeruginosa, PAO1, Pseudomonas aeruginosa PAM3034 (PAO1), read-out: MIC)
